# Laboratory results as given in patent US10844049B2, “GLP-1R agonists and uses thereof” (QILU REGOR THERAPEUTICS INC., priority 2018, dated 2020).
# Legend:
# GLP1R [1] = molecular target: T1, GLP1R (Homo sapiens, UniProt P43220); assay: GLP1R cAMP assay, CHO cells stably expressing human GLP-1R; type: cell-based; details: CHO cells stably expressing GLP-1R, read-out: CHO cAMP stable EC50
# Protocol: GLP-1R-mediated agonist activity was determined with a cell-based functional assay utilizing an HTRF (Homogeneous Time-Resolved Fluorescence) cAMP detection kit (cAMP Dynamic 2 Assay Kit; CisBio cat #62AM4PEC) that measures cAMP levels in the cell. The method is a competitive immunoassay between native cAMP produced by the cells and exogenous cAMP labeled with the dye d2. The tracer binding is visualized by a mAb anti-cAMP labeled with Cryptate. The specific signal (i.e., energy transfer) is inversely proportional to the concentration of cAMP in either standard or experimental sample.
# Varying concentrations of each compound to be tested (in DMSO) were diluted in DMSO to obtain 200× compound working solution first and then 50 nl compounds were added to a white 384-well assay plate (Greiner 784075) with ECHO. The final DMSO concentration was 0.5%. The compound concentration range may be adjusted at any time.
# Cells were removed from cryopreservation, re-suspended in 5 mL of Dulbecco's Phosphate Buffered Saline (DPBS-Sigma Cat # D8537) and centrifuged at 900 g for 5 min at 22° C. The cell pellet was then re-suspended in 1 mL of assay buffer [DPBS with 500 μM IBMX (Sigma #15879) and 0.1% BSA (Sigma # A1933). IBMX and BSA were freshly added on the day of assay]. A 10 μL sample of the cell suspension was counted on an Invitrogen Countess II to determine cell viability and cell count per mL. The remaining cell suspension was then adjusted with assay buffer to deliver 1000 viable cells per well using a Matrix Combi Multidrop reagent dispenser. 10 μL cell suspensions were added to each well of the assay plate which already contains compound. The plate was sealed and incubated at 37° C. with 5% CO2 for 30 minutes.
# Following the 30 minute incubation, 5 μL of labeled d2 cAMP and 5 μL of anti-cAMP antibody (both diluted 1:20 in cell lysis buffer; as described in the manufacturer's assay protocol) were added to each well of the assay plate. The plates w ere then incubated at room temperature and after 60 minutes, changes in the HTRF signal were read with an Envision multi-label plate reader using excitation of 330 nm and emissions of 615 and 665 nm. Raw data were converted to nM cAMP by interpolation from a cAMP standard curve (as described in the manufacturer's assay protocol) and the percent effect was determined relative to a saturating concentration of the full agonist GLP-17-37 (10 nM) included on each plate. EC50 determinations were made from agonist dose-response curves analyzed with a curve fitting program using a 4-parameter logistic dose response equation. […]
# GLP1R [2] = molecular target: T1, GLP1R; assay: GLP-1R/β-Arrestin recruitment assay (PathHunter eXpress GLP1R CHO-K1 β-Arrestin GPCR Assay); type: cell-based; set-up: host or cells: PathHunter CHO-K1 GLP1R β-Arrestin cells; details: averaged Bmax, percentage of control GLP-1 (7-37), highest concentration tested
# Text: GLP-1R agonist activity with respect to β-arrestin recruitment can be determined with a cell-based functional assay using PathHuntcr eXpress GLP1R CHO-K1 β-Arrestin GPCR Assay kit (DiscovcrX Cat #93-0300E2CP0M).
# The PathHunter β-Arrestin GPCR assay technology utilizes a β-galactosidase (β-gal) enzyme that is split into two fragments, the smaller Enzyme Donor (ED) and the larger Enzyme Acceptor (EA). These fragments can be fused to two proteins that may interact with each other, such as EA-β-Arrestin and ED-GLP-1R. The fusions can be stably expressed in a test cell line, such as the PathHunter CHO-K1 GLP1R β-Arrestin cells described below.
# Independently, these fragment fusions have no β-gal activity; however, in solution or in a living cell, they can be brought together and complement to form an active β-gal enzyme due to the interaction between the fused proteins, thus generating a chemiluminescent signal in the presence of a suitable β-gal substrate.
# In this experiment, PathHunter CHO-K1 GLP1R β-Arrestin cells from the assay kit were plated at a density of 1000 or 2000 cells/20 μl/well in a 384-well white/clear bottom plates (Greiner Cat #781098). Frozen cells were quickly thawed and 10 mL of cell plating medium (provided by the kit) was added to thawed cells. Cells were stored in a 37° C. incubator under 5% CO2 and kept for approximately 48 hours until ready to ran the assay.
# Reference and test compounds were dissolved in 100% DMSO. 5× concentration of an agonist was prepared in serum free DMEM (Thermo Cat #11965). 5 μL of this solution was added to 20 μL cell medium in assay plate for a final top concentration of 10 μM. Plates were then incubated at 37° C. under 5% CO2 for 90 min.
# Following 90 min incubation, detection reagents were made up by combining 1 part Galacton Star Substrate with 5 parts Emerald II™ Solution, and 19 parts of PathHunter Cell Assay Buffer, respectively. 12.5 μL detection reagent was added to each well. The plates were then incubated at room temperature in dark for 60 min. Plates were then read on Envision for 0.1 sec/well.
# EC50 determinations were made from agonist dose-response curves analyzed with a curve fitting program using a 4-parameter logistic dose response equation.
# Cells were plated at a density of 1000 or 2000 cells/20 μL/well. Frozen cells were quickly thawed and added to 10 mL of cell plating medium. Cells were stored in a 37° C. incubator under 5% CO2 and left for approximately 48 hours until ready to run the assay.
# • 1) Reference agonist compound GLP1 (7-37): dissolved with DMSO to make 1 mM stock solutions, aliquoted and stored at −80° C. • 2) Test compounds (such as the compounds of the invention) came solubilized in 100% DMSO.
# Prepare 10× concentration of an agonist in serum free DMEM, and add all solutions into the compound plate. 2.5 μL of this solution was added to 20 μL cell medium in assay plate for a final top concentration of 10 μM. Plates were incubated at 37° C. under 5% CO2 for 30 min. An additional 2.5 μL of Buffer was added to the entire plate for agonist mode and incubated at 37° C. for another 90 min.
# Following 90 min incubation, detection reagents were made up as described. 12.5 μL was added to all wells. The plates were then incubated at room temperature in dark for 60 min. Plates were then read on Envision for 0.1 sec/well.
# Data analysis: GraphPad Prism 6 was used for establishment of progression curve. EC50S or IC50s were determined by 4-parameter logistic dose response equation.
# T1 sequence (P43220 24-463): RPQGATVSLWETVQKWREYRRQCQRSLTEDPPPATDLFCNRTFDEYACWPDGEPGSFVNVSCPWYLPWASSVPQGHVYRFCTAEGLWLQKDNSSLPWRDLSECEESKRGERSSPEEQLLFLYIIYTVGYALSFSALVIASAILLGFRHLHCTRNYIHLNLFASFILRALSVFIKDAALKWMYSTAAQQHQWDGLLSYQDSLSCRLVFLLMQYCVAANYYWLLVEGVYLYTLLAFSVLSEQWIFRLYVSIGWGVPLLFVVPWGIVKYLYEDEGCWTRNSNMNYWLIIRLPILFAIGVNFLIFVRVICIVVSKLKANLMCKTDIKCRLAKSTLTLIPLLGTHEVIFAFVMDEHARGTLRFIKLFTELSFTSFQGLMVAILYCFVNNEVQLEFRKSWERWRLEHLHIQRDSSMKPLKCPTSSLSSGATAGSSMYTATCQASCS
SMILES,EC50 (GLP1R [1]) [nM],Bmax (POC) (GLP1R [2])
"N#Cc1ccc(COc2cccc(C3=CCN(Cc4nc5ccc(C(=O)O)nc5n4C[C@@H]4CCO4)CC3)n2)c(F)c1 [Compound 225, (S)-2-((6-((4-cyano-2-fluorobenzyl)oxy)-3′,6′-dihydro-[2,4′-bipyridin]-1′(2′H)-yl)methyl)-3-(oxetan-2-ylmethyl)-3H-imidazo[4,5-b]pyridine-5-carboxylic add]",≤ 15,32.5 ± 3.55
"O=C(O)c1ccc2nc(CN3CC=C(c4cncc(OCc5ccc(Cl)cc5F)n4)CC3)n(C[C@@H]3CCO3)c2c1 [Compound 34, (S)-2-((4-(6-(4-chloro-2-fluorobenzyloxy)pyrazin-2-yl)-5,6-dihydropyridin-1(2H)-yl)methyl)-1-(oxetan-2-ylmethyl)-1 h-benzo[d]imidazole-6-carboxylic acid]",≤ 150,20.2 ± 1.89
"O=C(O)c1ccc2nc(CN3CC=C(c4cccc(OCc5ccc(-n6ccnc6)cc5)n4)CC3)n(C[C@@H]3CCO3)c2n1 [Compound 245, (S)-2-((4-(6-(4-(1H-imidazol-1-yl)benzyloxy)pyridin-2-yl)-5,6-dihydropyridin-1(2H)-yl)methyl)-3-(oxetan-2-ylmethyl)-3H-imidazo[4,5-b]pyridine-5-carboxylic add]",≤ 15,38.0 ± 6.42
"O=C(O)c1ccc2nc(CN3CC=C(c4cccc(OCc5ccc(Cl)cc5F)c4)CC3)n(C[C@@H]3CCO3)c2c1F [Compound 237, (S)-2-((4-(3-((4-chloro-2-fluorobenzyl)oxy)phenyl)-3,6-dihydropyridin-1(2H)-yl)methyl)-7-fluoro-1-(oxetan-2-ylmethyl)-1H-benzo[d]imidazole-6-carboxylic acid]",≤ 150,37.9 ± 4.66
"O=C(O)c1ccc2nc(CN3CC=C(c4cccc(OCc5ccc(Cl)cc5F)c4)CC3)n(C[C@@H]3CCO3)c2n1 [Compound 224, (S)-2-((4-(3-((4-chloro-2-fluorobenzyl)oxy)phenyl)-3,6-dihydropyridin-1(2H)-yl)methyl)-3-(oxetan-2-ylmethyl)-3H-imidazo[4,5-b]pyridine-5-carboxylic acid]",≤ 150,33.4 ± 3.78
"O=C(O)c1ccc2nc(CN3CC=C(c4cccc(OCc5ccc(-c6cccnc6)cc5)n4)CC3)n(C[C@@H]3CCO3)c2c1 [Compound 242, (S)-1-(oxetan-2-ylmethyl)-2-((6-((4-(pyridin-3-yl)benzyl)oxy)-3′,6′-dihydro-[2,4′-bipyridin]-1′(2′H)-yl)methyl)-1H-benzo[d]imidazole-6-carboxylic add]",,22.5 ± 4.32
"O=C(O)c1ccc2nc(CN3CCC(c4cncc(OCc5ccc(Cl)cc5F)n4)CC3)n(C[C@@H]3CCO3)c2c1 [Compound 21, (S)-2-((4-(6-(4-chloro-2-fluorobenzyloxy)pyrazin-2-yl)piperidin-1-yl)methyl)-1-(oxetan-2-ylmethyl)-1 h-benzo[d]imidazole-6-carboxylic acid]",≤ 1000,19.0 ± 0.982
"O=C(O)c1ccc2nc(CN3CC=C(c4ccc(F)c(OCc5ccc(Cl)cc5F)c4)CC3)n(C[C@@H]3CCO3)c2c1F [Compound 238, (S)-2-((4-(3-((4-chloro-2-fluorobenzyl)oxy)-4-fluorophenyl)-3,6-dihydropyridin-1(2H)-yl)methyl)-7-fluoro-1-(oxetan-2-ylmethyl)-1H-benzo[d]imidazole-6-carboxylic acid]",≤ 150,55.8 ± 14.1
"O=C(O)c1ccc2nc(CN3CC=C(c4cccc(OCc5ccc(Cl)cc5F)n4)CC3)n(C[C@@H]3CCO3)c2c1 [Compound 221, (S)-2-((6-((4-chloro-2-fluorobenzyl)oxy)-3′,6′-dihydro-[2,4′-bipyridin]-1′(2′H)-yl)methyl)-1-(oxetan-2-ylmethyl)-1H-benzo[d]imidazole-6-carboxylic acid]",≤ 15,35.6 ± 5.38
"O=C(O)c1ccc2nc(CN3CC=C(c4ccc(F)c(OCc5ccc(Cl)cc5F)c4)CC3)n(C[C@@H]3CCO3)c2c1 [Compound 29, (S)-2-((4-(3-((4-chloro-2-fluorobenzyl)oxy)-4-fluorophenyl)-3,6-dihydropyridin-1(2H)-yl)methyl)-1-(oxetan-2-ylmethyl)-1 h-benzo[d]imidazole-6-carboxylic acid]",≤ 150,36.6 ± 7.77
"N#Cc1ccc(COc2cncc(C3=CCN(Cc4nc5ccc(C(=O)O)cc5n4C[C@@H]4CCO4)CC3)n2)c(F)c1 [Compound 23, (S)-2-((4-(6-(4-cyano-2-fluorobenzyloxy)pyrazin-2-yl)-5,6-dihydropyridin-1(2H)-yl)methyl)-1-(oxetan-2-ylmethyl)-1 h-benzo[d]imidazole-6-carboxylic acid]",≤ 1000,18.2 ± 1.51
"N#Cc1ccc(COc2cccc(C3=CCN(Cc4nc5ccc(C(=O)O)cc5n4C[C@@H]4CCO4)CC3)n2)c(F)c1 [Compound 19, (S)-2-((4-(6-(4-cyano-2-fluorobenzyloxy)pyridin-2-yl)-5,6-dihydropyridin-1(2H)-yl)methyl)-1-(oxetan-2-ylmethyl)-1 h-benzo[d]imidazole-6-carboxylic add]",≤ 15,26.0 ± 2.78
"O=C(O)c1ccc2nc(CN3CC=C(c4cccc(OCc5ccc(Cl)cc5F)c4)CC3)n(C[C@@H]3CCO3)c2c1 [Compound 28, (S)-2-((4-(3-((4-chloro-2-fluorobenzyl)oxy)phenyl)-3,6-dihydropyridin-1(2H)-yl)methyl)-1-(oxetan-2-ylmethyl)-1 h-benzo[d]imidazole-6-carboxylic add]",≤ 150,28.5 ± 6.36
